Test system: A549-NF-κB-SEAP reporter cells
Assay: NF-κB inflammation assay (PRINCESS NINA Instant Assay, SEAP reporter)
Format: cell-based
Settings: stimulation with 2 ng/ml TNF-α; test concentration for the class not stated
Text: Inhibition of NF-κB-Induced Inflammation:
For the determination of anti-inflammatory activity of the compounds the PRINCESS® NINA Instant Assay from Cell Culture Service GmbH was used. This assay is based on recombinant A549-NF-κB-SEAP reporter cells preseeded in 96-well flat bottom plates. As the transfected reporter gene for SEAP (secreted embryonic alkaline phosphatase) is under transcriptional control of a NF-κB-responsive element, the expression of this reporter is activated upon stimulation with TNF-α. SEAP secretion into the culture supernatant can be detected by the chemiluminescent substrate CSPD®. Test compounds that inhibit the NF-κB activation show reduced SEAP activity and reduced luminescent readout.
Following 18 h of reactivation at 37° C., 5% CO2 and 90% relative humidity, the cells were incubated with 0.01 up to 100 μM of test compound for 4.5 h before stimulation with 2 ng/ml TNF-α. After stimulation with TNF-α for 22 h endogenous phosphatases were inactivated and CSPD® substrate was supplied for 40 min. SEAP activity then was quantified by measuring luminescence as relative light units (RLU) using a Tecan Ultra reader. Each data point was recorded in quadruplicates and EC50 values were calculated via fitting function and the Microsoft Excel Solver.

SMILES | Biological activity (NF-κB inflammation assay, inhibition)
N#Cc1ccc(CN2CCC(c3nc(C(=O)N4CCC(n5nnc6cc(C(F)(F)F)ccc65)CC4)cs3)CC2)cc1 [Cp. 1, 4-(4-{4-[4-(5-Trifluoromethyl-benzotriazol-1-yl)-piperidine-1-carbonyl]-thiazol-2-yl}-piperidin-1-yl-methyl)-benzonitrile] | ++ (“++” means 80-90%)
N#Cc1ccc(CN2CCC(c3nc(C(=O)N4CCN(c5nsc6ccccc56)CC4)cs3)CC2)cc1 [Cp. 2, 4-{4-[4-(4-Benzo[d]isothiazol-3-yl-piperazine-1-carbonyl)-thiazol-2-yl]-piperidin-1-ylmethyl}-benzonitrile] | ++ (“++” means 80-90%)
N#Cc1ccc(CN2CCC(c3nc(C(=O)N4CCC(n5cnc6ccccc65)CC4)cs3)CC2)cc1 [Cp. 3, 4-{4-[4-(4-Benzoimidazol-1-yl-piperidine-1-carbonyl)-thiazol-2-yl]-piperidin-1-ylmethyl}-benzonitrile] | ++ (“++” means 80-90%)
COc1nc(OC)nc(N2CCC(c3nc(C(=O)N4CCN(c5nsc6ccccc56)CC4)cs3)CC2)n1 [Cp. 5, (4-Benzo[d]isothiazol-3-yl-piperazin-1-yl)-{2-[1-(4,6-dimethoxy-[1,3,5]triazin-2-yl)-piperidin-4-yl]-thiazol-4-yl}-methanone] | ++ (“++” means 80-90%)
COc1nc(OC)nc(N2CCC(c3nc(C(=O)N4CCC(n5cnc6ccccc65)CC4)cs3)CC2)n1 [Cp. 6, (4-Benzoimidazol-1-yl-piperidin-1-yl)-{2-[1-(4,6-dimethoxy-[1,3,5]triazin-2-yl)-piperidin-4-yl]-thiazol-4-yl}-methanone] | ++ (“++” means 80-90%)
COc1cc(N2CCC(c3nc(C(=O)N4CCN(c5nsc6ccccc56)CC4)cs3)CC2)nc(OC)n1 [Cp. 7, (4-Benzo[d]isothiazol-3-yl-piperazin-1-yl)-{2-[1-(2,6-dimethoxy-pyrimidin-4-yl)-piperidin-4-yl]-thiazol-4-yl}-methanone] | ++ (“++” means 80-90%)
O=C(c1csc(C2CCN(c3ncnc4ccsc34)CC2)n1)N1CCN(c2nsc3ccccc23)CC1 [Cp. 8, (4-Benzo[d]isothiazol-3-yl-piperazin-1-yl)-[2-(1-thieno[3,2-d]pyrimidin-4-yl-piperidin-4-yl)-thiazol-4-yl]-methanone] | +++ (“+++” stands for 90-100% inhibition)
